Experimental data from US12290527B2, “Compositions and methods for reducing major thrombotic events in cancer patients” (Beth Israel Deaconess Medical Center, Inc., priority 2018, dated 2025).
Entries after “also recorded” stand apart in the source; their conditions may differ.

Columns and labels:
[1] = system: prothrombin time and partial thromboplastin time; assay: Standard coagulation assays (prothrombin time, partial thromboplastin time); type: in vivo, human
Description: (§1) Measurement of soluble P-selectin (CD62) was performed centrally using a commercial ELISA (Invitrogen/ThermoFisher Scientific #BMS219-4) and prothrombin time and partial thromboplastin time according to standard manufacturer protocol on a Sago Start 4 instrument (STA-Neoplastine CI Plus 5 #00606, STA-PTT Automate 5 #00595).

D-dimer = assay: Plasma D-dimer (Asserachrom D-Di ELISA), phase II trial in cancer patients; type: in vivo, human
Description: A multi-center, multi-dose phase II trial was conducted to evaluate, among other markers and readouts, the efficacy of targeting protein disulfide isomerase (PDI) along with soluble P-selectin with isoquercetin to reduce the hypercoagulability in cancer patients at high risk for venous thromboembolism (VTE). Patients received isoquercetin at 500 mg (cohort A) or 1000 mg (cohort B) daily for 56 days with laboratory assays at the beginning and at completion of study (along with duplex ultrasound). The primary endpoint was a reduction in D-dimer and the primary clinical endpoint included pulmonary embolism or proximal deep vein thrombosis, and also included measuring the level of soluble P-selectin. (See, Zwicker et al., JCI Insight.2019; 4(4):e125851.)
The primary endpoint of the study was comparison of plasma D-dimer at baseline and end-of-study. D-dimer is liberated from cross-linked fibrin following […] degradation. D-dimer is the most validated and commonly utilized laboratory assay in the clinic to detect deep vein thrombosis. In patients with advanced cancer, plasma D-dimer levels are commonly elevated and correlate with an increased risk for developing of VTE.
Participants were sequentially enrolled into two dosing cohorts: Cohort A (isoquercetin 500 mg) and Cohort B (isoquercetin 1000 mg). Isoquercetin was supplied in capsules containing 250 mg of isoquercetin each with 10 mg added as overage to guarantee a minimum of 250 mg of isoquercetin per capsule with added Vitamin C and Vitamin B3 by Quercegen Pharmaceuticals LLC (Boston, MA). The drug product capsules were manufactured by Pharmavize NV, Kleinmoer 4, 9030 Mariakerke, Belgium.
The ratio of components in the capsules was: 1:0.25:0.02 of isoquercetin, vitamin C, and vitamin B3, respectively. It is noted that folic acid can optionally be present in the isoquercetin composition. Isoquercetin was taken orally daily for a total of 56 days. The first 5 patients of each cohort were monitored for evidence of toxicity prior (≥1 grade 3 or higher toxicity possibly related to isoquercetin) prior to the subsequent enrollment of 25 patients into each cohort. Patients were monitored for development of a venous thromboembolic event throughout the study including a bilateral lower extremity duplex ultrasound at end of study visit (day 56±5). […]
Blood was drawn by peripheral venipuncture into 3.2% citrate. […] D-dimer was measured centrally using Asserrachrom D-Di ELISA, considered the reference standard assay for D-dimer (Stago, France) (Meyer G. et al., Blood Coagulation & Fibrinolysis. 1998; 9(7):603-8.).

[2] = isoquercetin at 500 mg; prior pharmacokinetic studies; cited from earlier work
soluble P-selectin [3] = assay: Soluble P-selectin (CD62) in plasma, commercial ELISA; type: in vivo, human; settings: for median change in soluble P-selectin: end-of-treatment vs baseline plasma
Text: P-selectin is a transmembrane adhesion receptor that is externalized from α-granules in platelets and Weibel-Palade bodies in endothelial cells following cell activation. P-selectin can be shed from the cell surface following externalization and P-selectin shedding is increased in cardiovascular disease, sepsis, and cancer. […] As PDI inhibition alters platelet and endothelial reactivity, baseline versus end-of-treatment plasma levels of soluble P-selectin following treatment with isoquercetin was compared. As shown in FIG. 6A-FIG. 6B, there was no change in soluble P-selectin in Cohort A (FIG. 6A) (median change −0.3%, P=0.26).
as §1

[4] = system: patients with advanced cancer; assay: Venous thromboembolism monitoring (clinical and end-of-study lower extremity ultrasound); type: in vivo, human
Text: Patients were monitored for the development of venous thromboembolism (VTE) throughout the two months of the study including an end-of-study bilateral lower extremity ultrasound to evaluate for asymptomatic lower extremity proximal DVT. Shown in FIG. 3A-FIG. 3D is the proportion of patients remaining free of VTE through the course of the study. […] There were three secondary VTE endpoints recorded in cohort A (FIG. 3C, two incidental catheter-associated DVT diagnosed with re-staging imaging and one lower extremity superficial venous clot). In cohort B (FIG. 3D), there were two secondary endpoint thrombotic events recorded (superficial venous clot of the lower extremity and incidental thrombosis observed in a lingular pulmonary vein on re-staging imaging).
(§2) The ratio of components in the capsules was: 1:0.25:0.02 of isoquercetin, vitamin C, and vitamin B3, respectively. It is noted that folic acid can optionally be present in the isoquercetin composition. Isoquercetin was taken orally daily for a total of 56 days. The first 5 patients of each cohort were monitored for evidence of toxicity prior (≥1 grade 3 or higher toxicity possibly related to isoquercetin) prior to the subsequent enrollment of 25 patients into each cohort. Patients were monitored for development of a venous thromboembolic event throughout the study including a bilateral lower extremity duplex ultrasound at end of study visit (day 56±5). Participants were taken off study if they developed an intercurrent illness that prevented further administration; unacceptable adverse events; poor compliance; participant preference; VTE or condition requiring therapeutic anticoagulation; requirement for prophylactic anticoagulation for >7 consecutive days; or grade ≥3 hemorrhage or otherwise met the ISTH criteria for major hemorrhage. Doses were held for grade 2 hemorrhage or platelet count <50×10^9/L.
The primary VTE endpoint included any symptomatic proximal or distal deep vein thrombosis, symptomatic PE or fatal PE diagnosed by autopsy, asymptomatic proximal DVT diagnosed by protocol-specified ultrasound at end of study. All suspected VTE were assessed by an independent adjudication committee that included central radiologic review of images. Criteria for new VTE included any of the following: A) A new noncompressibility of lower extremity deep venous segments by compression ultrasound (distal lower extremity thrombus qualified for primary VTE endpoint only if symptomatic). […] All other venous or arterial events were recorded and analyzed as secondary endpoints. […]

[5] = system: platelet-dependent thrombin generation; assay: Platelet-dependent thrombin generation assay on patient plasma; type: in vivo, human; settings: follow-up vs baseline
Text: The platelet-dependent thrombin generation assay measures thrombin generation following platelet activation and requires PDI. […] Correlation between PDI inhibitory activity in plasma and platelet-dependent thrombin generation confirmed the PDI-dependency of thrombin generation (Spearman coefficient 0.29, P=0.004). There was significant correlation between increased plasma PDI inhibitory activity and decreased thrombin generation (Pearson correlation coefficient 0.45, P=0.002)
Platelet-dependent thrombin generation was performed according to previously published methodology (Stopa J D et al., JCI insight. 2017;2(1):e89373; Jurk K et al. J Thromb Haemost. 2011; 9(11):2278-90). Briefly, platelet-free plasma was mixed with donor platelet-rich plasma diluted to a platelet concentration of 250,000 platelets per microliter in the presence of 5 mM GPRP and 6 mM CaCl2), and then stimulated with 0.1 U/ml of thrombin. Samples were incubated for 90 min at room temperature with rotation, and thrombin levels were measured using cleavage of a fluorescent thrombin-specific substrate (Haemtech SN-20 Boc-L-FPR-ANSNH-C2H5) by excitation at 352 nm and emission as a function of time at 470 nm. Rates of substrate cleavage were used to calculate the concentration of thrombin in each sample.

[6] = system: patients with advanced cancer; assay: Safety: hemorrhage (ISTH) and toxicities (CTCAE) in phase II trial; type: in vivo, human
Text: as §2
The primary VTE endpoint included any symptomatic proximal or distal deep vein thrombosis, symptomatic PE or fatal PE diagnosed by autopsy, asymptomatic proximal DVT diagnosed by protocol-specified ultrasound at end of study. All suspected VTE were assessed by an independent adjudication committee that included central radiologic review of images. Criteria for new VTE included any of the following: A) A new noncompressibility of lower extremity deep venous segments by compression ultrasound (distal lower extremity thrombus qualified for primary VTE endpoint only if symptomatic). B) Intraluminal defects in two or more views on pulmonary angiography, sudden contrast cut-off of one or more vessels greater than 2.5 mm in diameter on a pulmonary angiogram; a high probability VQ lung scan showing one or more segmental perfusion defects with corresponding normal ventilation (mismatch defect); or abnormal spiral CT showing thrombus in pulmonary vessels (subsegmental or larger). All other venous or arterial events were recorded and analyzed as secondary endpoints. Criteria for major hemorrhage was according to ISTH definition (Schulman S, and Kearon C. J Thromb Haemost. 2005; 3(4):692-4). All toxicities were graded according NCI Common Terminology Criteria for Adverse Events (CTCAE). Study oversight was performed by an independent Data Safety Monitoring Committee at Dana Farber Harvard Cancer Center.

soluble P-selectin [7] = settings: standard anticoagulants compared in words; cited from earlier work
[8] = Cohort A, isoquercetin 500 mg daily
[9] = Cohort B, isoquercetin 1000 mg daily

O=c1c(O[C@@H]2O[C@H](CO)[C@@H](O)[C@H](O)[C@H]2O)c(-c2ccc(O)c(O)c2)oc2cc(O)cc(O)c12 [isoquercetin, 2-(3,4-Dihydroxyphenyl)-5,7-dihydroxy-3-[(2S,3R,4S,5S,6R)-3,4,5-trihydroxy-6-(hydroxymethyl)oxan-2-yl]oxychromen-4-one]
mean PT at 2-months ([1]; Cohort A, 500 mg daily, baseline 14.0 seconds): 14.3 s | mean PTT at study completion ([1]; Cohort A, 500 mg daily, baseline 49.6 seconds): 45.6 s | mean PT at 2-months ([1]; Cohort B, 1000 mg daily, baseline 15.1 seconds): 15.2 s | mean PTT at 2-months ([1]; Cohort B, 1000 mg daily, baseline 54.2 seconds): 51.9 s | effects in standard coagulation assays (in words) ([1]; following administration of isoquercetin, both cohorts): no effects detected | individuals with reduced D-dimer (D-dimer; Cohort B, 1000 mg daily, paired samples): 18 of 22 | median change in D-dimer (D-dimer; Cohort B, isoquercetin 1000 mg daily oral, 56 days, baseline vs end-of-study, cancer patients): −21.9% | median decrease of D-dimer plasma concentrations (D-dimer; isoquercetin 1000 mg daily, 56 days, printed as decrease without sign): 21.9% | reduction of D-dimer levels (in words) (D-dimer; lower dose, isoquercetin 500 mg): did not reduce D-dimer levels | plasma concentrations relative to IC50 of PDI activity in vitro [2]: fall below the inhibitory concentration (IC50) of PDI activity in vitro | median change in soluble P-selectin (soluble P-selectin [3]; [8]): −0.3% | patients with decreased soluble P-selectin (in words) (soluble P-selectin [3]; [9]): decreased in all patients except one | median change in soluble P-selectin (soluble P-selectin [3]; [9]): −57.9% | secondary VTE endpoints recorded ([4]; Cohort A, 500 mg daily, two catheter-associated DVT, one superficial venous clot): three | secondary endpoint thrombotic events recorded ([4]; Cohort B, 1000 mg daily, superficial venous clot, lingular pulmonary vein thrombosis): two | primary VTE endpoint events ([4]; both cohorts (500 mg and 1000 mg daily), 2-month study): no VTE that met criteria for the primary VTE endpoint; also recorded: no primary VTE endpoints observed | proximal deep vein thrombosis, pulmonary emboli, or major hemorrhage observed ([4]; treated patients, cancer population at higher risk for thrombosis and hemorrhage): none of the following were observed | median change in platelet-dependent thrombin generation [5, 8]: −31.1% | median change in platelet-dependent thrombin generation [5, 9]: −57.2% | patients developing grade 1 epistaxis ([6]; Cohort A, 500 mg daily): One | patients developing non-severe gastrointestinal bleeding ([6]; Cohort B, 1000 mg daily, grade 1 hemorrhoid and grade 2 rectal bleeding): two | severe adverse events (grade 3 or 4) attributed to isoquercetin ([6]; both cohorts): no severe adverse events (grade 3 or 4); also recorded: No grade 3 or 4 toxicities were reported | major hemorrhages ([6]; both cohorts, modified intention-to treat analyses): no major hemorrhages observed | most commonly reported toxicities on study ([6]; common toxicities of the concurrent chemotherapeutics): nausea and diarrhea | deaths during the 2 months of follow-up ([6]; following initiation of isoquercetin): no deaths reported

O=C(NC[C@H]1CN(c2ccc(N3CCOCC3=O)cc2)C(=O)O1)c1ccc(Cl)s1 [rivaroxaban]
lowering of soluble P-selectin levels (activity shared with isoquercetin or not) (soluble P-selectin [7]): not shared

CC(=O)CC(c1ccccc1)c1c(O)c2ccccc2oc1=O (stereo not drawn) [warfarin]
lowering of soluble P-selectin levels (activity shared with isoquercetin or not) (soluble P-selectin [7]): not shared
